Patent US12403137B2, “Compounds and methods of use” (Tango Therapeutics, Inc., priority 2019, dated 2025)

Tests used:
PRMT5 [1] = target: T1, PRMT5 (Homo sapiens, UniProt O14744); assay: PRMT5 inhibition assay with MTA as cofactor; type: biochemical; settings: against PRMT5 with MTA as cofactor
T1 construct: purchased Viva (custom protein)
Excerpt: The Ki values can be calculated from the IC50 values as described in the Examples section. As detailed in the Examples section, for the assay performed in the presence of SAM, IC50=Ki×1.5 (Ki=IC50/1.5). For the assay performed in the presence of MTA, IC50=Ki×13.5 (Ki=IC50/13.5). Column 6 indicates the ratio between the Ki of compounds in the presence of SAM and the Ki of compounds in the presence of MTA

PRMT5 [2] = target: T1, PRMT5; assay: PRMT5 inhibition assay with no cofactor; type: biochemical; settings: against PRMT5 with no cofactor; read-out: No Co-factor IC50
[3] = test system: HAP1 MTAP-deleted cell line; assay: SDMA in-cell western assay, HAP1 MTAP-deleted; type: cell-based; settings: for IC50: Homo sapiens, HAP1 MTAP-deleted (MTAP-null) cell line; for MTAP Intact/Deleted Ratio: IC50 ratio HAP1 MTAP-intact / HAP1 MTAP-deleted, >=3 fold considered MTAP-selective
Description: (§1) Table 1 also indicates IC50 values in an MTAP-isogenic cell line pair for exemplary compounds in an SDMA in-cell western assay (columns 7-8). HAP1 MTAP-intact is a cell line in which endogenous levels of MTAP are expressed, and HAP1 MTAP-deleted is an MTAP-null cell line. For Table 1, “a*” and “aa*” indicates an IC50 of <1 μM, “b*” and “bb*” indicates an IC50 equal to or greater than 1 μM but less than 10 μM, and “c*” and “cc*” indicates an IC50 of greater than or equal to 10 μM in the HAP1 MTAP-intact and the HAP1 MTAP-deleted assays, respectively. In column 9, “A*” indicates an IC50 ratio greater than or equal to 10 fold between the IC50 in the HAP1 MTAP-intact cell line and the HAP1 MTAP-deleted cell line; “B*” indicates an IC50 ratio greater than or equal to 3 fold but lower than 10 fold between the IC50 in the HAP1 MTAP-intact cell line and the HAP1 MTAP-deleted cell line; “C*” indicates an IC50 ratio of less than 3 fold between the IC50 in the HAP1 MTAP-intact cell line and the HAP1 MTAP-deleted cell line. Compounds with a ratio in the SDMA in-cell western assay of equal to or greater than 3 fold are considered MTAP-selective.

[4] = test system: HAP1 MTAP-intact cell line; assay: SDMA in-cell western assay, HAP1 MTAP-intact; type: cell-based; settings: Homo sapiens
Description: as §1

T1 sequence (O14744 whole entry): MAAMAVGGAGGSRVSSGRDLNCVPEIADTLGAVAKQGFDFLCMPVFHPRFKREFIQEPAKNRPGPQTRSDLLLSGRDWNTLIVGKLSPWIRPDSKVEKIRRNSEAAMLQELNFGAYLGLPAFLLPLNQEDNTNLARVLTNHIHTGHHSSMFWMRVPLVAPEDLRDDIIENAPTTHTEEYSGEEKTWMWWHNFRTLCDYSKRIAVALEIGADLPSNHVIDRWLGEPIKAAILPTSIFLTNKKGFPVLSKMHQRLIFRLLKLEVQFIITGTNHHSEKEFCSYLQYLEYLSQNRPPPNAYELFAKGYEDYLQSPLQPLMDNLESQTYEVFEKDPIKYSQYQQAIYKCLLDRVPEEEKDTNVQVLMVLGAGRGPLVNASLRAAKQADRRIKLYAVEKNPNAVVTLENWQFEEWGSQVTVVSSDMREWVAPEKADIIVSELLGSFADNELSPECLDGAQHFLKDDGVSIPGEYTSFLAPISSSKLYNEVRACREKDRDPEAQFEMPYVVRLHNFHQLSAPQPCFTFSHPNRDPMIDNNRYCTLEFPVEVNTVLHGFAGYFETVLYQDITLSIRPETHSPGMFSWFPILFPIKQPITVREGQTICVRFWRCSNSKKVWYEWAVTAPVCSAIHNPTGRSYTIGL
T1 sequence (Q9BQA1 whole entry partner): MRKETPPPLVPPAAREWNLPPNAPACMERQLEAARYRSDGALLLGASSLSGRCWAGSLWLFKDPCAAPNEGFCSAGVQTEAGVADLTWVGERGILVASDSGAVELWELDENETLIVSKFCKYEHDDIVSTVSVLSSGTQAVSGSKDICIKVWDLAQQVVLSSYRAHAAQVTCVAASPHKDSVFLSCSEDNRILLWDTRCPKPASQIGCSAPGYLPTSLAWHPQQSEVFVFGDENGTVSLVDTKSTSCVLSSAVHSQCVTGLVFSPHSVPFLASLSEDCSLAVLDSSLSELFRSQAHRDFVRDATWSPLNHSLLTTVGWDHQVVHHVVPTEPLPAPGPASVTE

SMILES	IC50 (PRMT5 [1]) [nM]	IC50 (PRMT5 [2]) [nM]	IC50 [3] [nM]	MTAP Intact/Deleted Ratio [3]	IC50 [4] [nM]
CC(=O)N1CC(Nc2cc(C(=O)NCC[C@@H]3Cc4ccc(OCc5ocnc5C)cc4CN3)nc(N3CCCCC3)n2)C1 (single isomer, unassigned) [85**]	50 to 500	500 to 5000			
Cc1ncoc1COc1cc2c(cc1F)C[C@@H]([C@H](O)CNC(=O)c1ccnc(NC3CCC3)c1)NC2 [Compound 65, 2-(cyclobutylamino)-N-[(2R)-2-[(3S)-6-fluoro-7-[(4-methyloxazol-5-yl)methoxy]-1,2,3,4-tetrahydroisoquinolin-3-yl]-2-hydroxy-ethyl]pyridine-4-carboxamide]	< 50	500 to 5000	< 1000	A* (an IC50 ratio greater than or equal to 10 fold between the IC50 in the HAP1 MTAP-intact cell line and the HAP1 MTAP-deleted cell line)	≥ 10000
CC(=O)N1CCC(Nc2cc(C(=O)NC[C@@H](O)[C@@H]3Cc4ccc(OCc5ocnc5C)cc4CN3)nc(N3CCCC3)n2)CC1 [Compound 81]	< 50	50 to 500	< 1000	A* (an IC50 ratio greater than or equal to 10 fold between the IC50 in the HAP1 MTAP-intact cell line and the HAP1 MTAP-deleted cell line)	1000 to 10000
Cc1ncoc1COc1ccc2c(c1)CN[C@H]([C@H](O)CNC(=O)c1cc(NC3CC4(CCC4)C3)nc(N3CCN(C(=O)C4CC4)CC3)n1)C2 [Compound 84]	< 50	< 50			
Cc1ncoc1COc1ccc2c(c1)CN[C@H]([C@H](O)CNC(=O)c1cc(NC3CC4(CCC4)C3)nc(N3CCN(C(C)C)CC3)n1)C2 [Compound 86]	< 50	< 50			
CC(=O)N1CC(Nc2cc(C(=O)NC[C@H](O)[C@@H]3Cc4ccc(OCc5ocnc5C)cc4CN3)nc(N3CCCCC3)n2)C1 [Compound 64]			1000 to 10000		
Cc1ncoc1COc1ccc2c(c1)CN[C@H]([C@H](O)CNC(=O)c1cc(NC3CC4(CCC4)C3)nc(N3CCN(C(C)C)CC3)c1)C2 [Compound 70]	< 50	< 50	< 1000	B* (an IC50 ratio greater than or equal to 3 fold but lower than 10 fold between the IC50 in the HAP1 MTAP-intact cell line and the HAP1 MTAP-deleted cell line)	< 1000
COCCN(C)c1nc(NC2CCN(C(C)=O)CC2)cc(C(=O)NC[C@@H](O)[C@@H]2Cc3ccc(OCc4ocnc4C)cc3CN2)n1 [Compound 79]	< 50	50 to 500	< 1000	A* (an IC50 ratio greater than or equal to 10 fold between the IC50 in the HAP1 MTAP-intact cell line and the HAP1 MTAP-deleted cell line)	1000 to 10000
Cn1nccc1COc1ccc2c(c1)CN[C@H]([C@H](O)CNC(=O)c1ccnc(NC3CCC3)c1)C2 [Compound 14, 2-(cyclobutylamino)-N—((R)-2-hydroxy-2-((S)-7-((1-methyl-1H-pyrazol-5-yl)methoxy)-1,2,3,4-tetrahydroisoquinolin-3-yl)ethyl)isonicotinamide]			< 1000		≥ 10000
CC(=O)N1CC(Nc2cc(C(=O)NC[C@@H](O)[C@@H]3Cc4ccc(OCc5ocnc5C)cc4CN3)nc(N3CCCCC3)n2)C1 [Compound 22, 6-((1-acetylazetidin-3-yl)amino)-N—((R)-2-hydroxy-2-((S)-7-((4-methyloxazol-5-yl)methoxy)-1,2,3,4-tetrahydroisoquinolin-3-yl)ethyl)-2-(piperidin-1-yl)pyrimidine-4-carboxamide]			< 1000		1000 to 10000
CC(=O)N1CC(Nc2cc(C(=O)NCC[C@H]3Cc4ccc(OCc5ocnc5C)cc4CN3)nc(N3CCCCC3)n2)C1 (single isomer, unassigned) [83**]	< 50	50 to 500			
CCOc1cc(C(=O)N2C3CCC2COC3)ccc1C(=O)NC[C@@H](O)[C@@H]1Cc2ccc(OCc3ccn[nH]3)cc2CN1 [Compound 76, 2-ethoxy-N-[(2R)-2-hydroxy-2-[(3S)-7-(1H-pyrazol-5-ylmethoxy)-1,2,3,4-tetrahydroisoquinolin-3-yl]ethyl]-4-(3-oxa-8-azabicyclo[3.2.1]octane-8-carbonyl)benzamide]	50 to 500	500 to 5000			≥ 10000
Cc1ncoc1COc1ccc2c(c1)CN[C@H]([C@H](O)CNC(=O)c1ccnc(NC3CCC3)c1)C2 [Compound 15, 2-(cyclobutylamino)-N—((R)-2-hydroxy-2-((S)-7-((4-methyloxazol-5-yl)methoxy)-1,2,3,4-tetrahydroisoquinolin-3-yl)ethyl)isonicotinamide]			< 1000		≥ 10000
COCCN(C)c1nc(NC2CC3(CCC3)C2)cc(C(=O)NC[C@@H](O)[C@@H]2Cc3ccc(OCc4ocnc4C)cc3CN2)n1 [Compound 80]			< 1000		1000 to 10000
O=C(NC[C@@H](O)[C@@H]1Cc2ccc(OCc3cnco3)cc2CN1)c1ccnc(NC2CCC2)c1 [Compound 19, 2-(cyclobutylamino)-N—((R)-2-hydroxy-2-((S)-7-(oxazol-5-ylmethoxy)-1,2,3,4-tetrahydroisoquinolin-3-yl)ethyl)isonicotinamide]			1000 to 10000		≥ 10000
COc1ccc(C(=O)N2CCc3cc(C(=O)NC[C@@H](O)[C@@H]4Cc5ccc(OCc6cnco6)cc5CN4)ccc3C2)cc1 [Compound 74, N-[(2R)-2-hydroxy-2-[(3S)-7-(oxazol-5-ylmethoxy)-1,2,3,4-tetrahydroisoquinolin-3-yl]ethyl]-2-(4-methoxybenzoyl)-3,4-dihydro-1H-isoquinoline-6-carboxamide]	< 50	50 to 500	< 1000		
COc1ccc(C(=O)N2CCc3cc(C(=O)NC[C@@H](O)[C@@H]4Cc5ccc(OCc6ccnn6C)cc5CN4)ccc3C2)cc1 [Compound 77, N-[(2R)-2-hydroxy-2-[(3S)-7-[(2-methylpyrazol-3-yl)methoxy]-1,2,3,4-tetrahydroisoquinolin-3-yl]ethyl]-2-(4-methoxybenzoyl)-3,4-dihydro-1H-isoquinoline-6-carboxamide]	< 50	500 to 5000			1000 to 10000
CC(=O)N1CC2(CC(Nc3cc(C(=O)NC[C@@H](O)[C@@H]4Cc5ccc(OCc6ocnc6C)cc5CN4)nc(N4CCCCC4)n3)C2)C1 [Compound 48, 6-[(2-acetyl-2-azaspiro[3.3]heptan-6-yl)amino]-N-[(2R)-2-hydroxy-2-[(3S)-7-[(4-methyloxazol-5-yl)methoxy]-1,2,3,4-tetrahydroisoquinolin-3-yl]ethyl]-2-(1-piperidyl)pyrimidine-4-carboxamide]			< 1000		< 1000
CC(=O)N1CC(Nc2cc(C(=O)NC[C@@H](O)[C@@H]3Cc4ccc(OCc5ocnc5C)cc4CN3)nc(N3CCC(C)CC3)n2)C1 [Compound 62, 6-[(1-acetylazetidin-3-yl)amino]-N-[(2R)-2-hydroxy-2-[(3S)-7-[(4-methyloxazol-5-yl)methoxy]-1,2,3,4-tetrahydroisoquinolin-3-yl]ethyl]-2-(4-methyl-1-piperidyl)pyrimidine-4-carboxamide]			< 1000		1000 to 10000
CCOc1cc(C(=O)N2C3CCC2COC3)ccc1C(=O)NC[C@@H](O)[C@@H]1Cc2ccc(OCc3ccncc3)cc2CN1 [Compound 73, 2-ethoxy-N-[(2R)-2-hydroxy-2-[(3S)-7-(4-pyridylmethoxy)-1,2,3,4-tetrahydroisoquinolin-3-yl]ethyl]-4-(3-oxa-8-azabicyclo[3.2.1]octane-8-carbonyl)benzamide]	50 to 500	≥ 5000	1000 to 10000		
